From ChEMBL document CHEMBL1201862, “PubChem BioAssay data set” (2004)
Activity calls are given as the source filed them.

Experiments:
[1] = molecular target: T1, High affinity choline transporter 1 (Homo sapiens, UniProt Q9GZV3); test: CHT inhibitors, dose response, cell-based, 5-point CRC, membrane potential dye (AID 504840); assay type: functional
T1 sequence (Q9GZV3 whole entry): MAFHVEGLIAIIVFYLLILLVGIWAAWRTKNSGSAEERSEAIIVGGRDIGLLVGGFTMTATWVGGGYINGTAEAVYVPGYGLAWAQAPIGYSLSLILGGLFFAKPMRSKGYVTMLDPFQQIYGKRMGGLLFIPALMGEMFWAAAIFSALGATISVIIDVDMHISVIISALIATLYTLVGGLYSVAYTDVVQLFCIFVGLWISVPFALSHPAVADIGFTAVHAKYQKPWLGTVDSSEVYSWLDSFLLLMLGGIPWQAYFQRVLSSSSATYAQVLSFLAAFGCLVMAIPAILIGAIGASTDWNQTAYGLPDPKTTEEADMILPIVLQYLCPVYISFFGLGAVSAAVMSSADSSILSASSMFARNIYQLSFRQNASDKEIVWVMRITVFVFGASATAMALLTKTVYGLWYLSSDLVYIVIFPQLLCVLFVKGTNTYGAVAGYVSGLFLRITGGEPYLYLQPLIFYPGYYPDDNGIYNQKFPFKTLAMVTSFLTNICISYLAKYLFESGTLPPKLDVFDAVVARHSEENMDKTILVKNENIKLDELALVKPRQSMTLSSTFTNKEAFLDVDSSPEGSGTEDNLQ

[2] = inhibitors of intracellular T. cruzi replication, confirmation, NIH3T3 host cells, beta-gal luminescence (AID 2044); assay type: functional, cell-based;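 note: intracellular parasites grown in NIH/3T3 mouse fibroblasts as host cells; luminescent beta-galactosidase reporter signal from transgenic T. cruzi replicating inside host cells; inhibitors lower the luminescence signal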
[3] = cytotoxicity toward NIH3T3 fibroblasts, dose response, counter-screen, cell-based, ATP luminescence, mouse fibroblasts (AID 2010); assay type: functional;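 note: cells exposed to compound for about 90 hours before reading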
[4] = growth suppression of PTEN-null colon cells, dose response, cell-based, HCT116 PTEN knockout (AID 1047); assay type: functional;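 note: HCT116 colon tumor cells with PTEN knocked out; cells exposed to compound for 60 hours before readout; potency for loss of cell viability measured by luminescence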
[5] = molecular target: T2, Microphthalmia-associated transcription factor (Homo sapiens, UniProt O75030); test: TRPM1 promoter luciferase signal decrease, dose response, MITF inhibitor project, cell-based, SK-MEL-5, cherry-picked, set 3 (AID 493073); assay type: functional
T2 sequence (O75030 whole entry): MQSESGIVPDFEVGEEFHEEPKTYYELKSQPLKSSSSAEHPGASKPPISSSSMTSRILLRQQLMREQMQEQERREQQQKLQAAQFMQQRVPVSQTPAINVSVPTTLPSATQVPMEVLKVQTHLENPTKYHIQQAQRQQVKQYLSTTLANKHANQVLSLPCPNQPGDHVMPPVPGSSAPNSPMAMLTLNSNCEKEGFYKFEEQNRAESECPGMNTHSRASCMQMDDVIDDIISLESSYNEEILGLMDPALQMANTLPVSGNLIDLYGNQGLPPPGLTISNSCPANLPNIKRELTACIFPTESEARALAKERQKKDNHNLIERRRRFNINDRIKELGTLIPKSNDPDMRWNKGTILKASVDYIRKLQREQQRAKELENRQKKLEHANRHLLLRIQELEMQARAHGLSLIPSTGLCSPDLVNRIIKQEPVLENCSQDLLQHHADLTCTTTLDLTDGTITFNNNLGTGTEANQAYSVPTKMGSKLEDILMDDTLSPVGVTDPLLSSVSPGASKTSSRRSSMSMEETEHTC

[6] = tested on: INS1; test: beta cell apoptosis inhibitors, cytokine rescue, dose response, luminescence, retest (AID 449756); assay type: functional, cell-based; settings: Rattus norvegicus;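 note: cell death triggered by IL-1 beta plus TNF-alpha plus IFN-gamma mixture; protective hits raise ATP signal compared with cytokine alone wells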
[7] = growth suppression of beta-catenin-knockout colon cells, dose response, cell-based, HCT116, human colon tumor (AID 1045); assay type: functional;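 note: HCT116 colon tumor cells with beta catenin knocked out; cells exposed to compound for 60 hours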
[8] = cells; assay type: functional
[9] = cells; assay type: functional, cell-based
[10] = Luminescence Cell-Based Dose Response HTS to Identify Inhibitors of 5'UTR Stem-Loop Driven Prion Protein mRNA Translation in H4 Neuroglioblastoma Cells. [Related pubchem assays: 1827 (Project Summary), 1813 (Primary HTS)]; assay type: functional
[11] = cells; assay type: functional, cell-based; remark: listed apart in the source
[12] = inhibitors of firefly luciferase expression or activity, dose response, H4 neuroglioma cells, luminescence (AID 1990); assay type: functional, cell-based
[13] = tested on: Streptococcus sp. 'group A'; test: growth inhibition of control SK(-) GAS strain, dose response, counter-screen for streptokinase expression inhibitor project, luminescence, kanamycin, BacTiterGlo, confirmation (AID 1900); assay type: functional, organism-based
[14] = tested on: Streptococcus; test: Group A Streptococcus viability loss, dose response, counter-screen for streptokinase expression inhibitor project, luminescence, BacTiterGlo (AID 1915); assay type: functional, organism-based;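 note: potency for reduction of bacterial viability or growth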
[15] = THP-1 cell cytotoxicity, dose response, cytotoxicity control for non-replicating M. tuberculosis project (AID 489025); assay type: functional
[16] = HepG2 cell cytotoxicity, dose response, cytotoxicity control for non-replicating M. tuberculosis project (AID 489018); assay type: functional; settings: Mycobacterium tuberculosis
[17] = molecular target: T3, Streptokinase A (Streptococcus pyogenes serotype M1, UniProt P10520); test: S. pyogenes streptokinase expression inhibitors, potency, dose response, plasminogen activation absorbance, OD405 (AID 1914); assay type: functional, Streptococcus pyogenes M1 GAS;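 note: secreted streptokinase activity via plasminogen activation per viability signal from cell pellet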
T3 sequence (P10520 whole entry): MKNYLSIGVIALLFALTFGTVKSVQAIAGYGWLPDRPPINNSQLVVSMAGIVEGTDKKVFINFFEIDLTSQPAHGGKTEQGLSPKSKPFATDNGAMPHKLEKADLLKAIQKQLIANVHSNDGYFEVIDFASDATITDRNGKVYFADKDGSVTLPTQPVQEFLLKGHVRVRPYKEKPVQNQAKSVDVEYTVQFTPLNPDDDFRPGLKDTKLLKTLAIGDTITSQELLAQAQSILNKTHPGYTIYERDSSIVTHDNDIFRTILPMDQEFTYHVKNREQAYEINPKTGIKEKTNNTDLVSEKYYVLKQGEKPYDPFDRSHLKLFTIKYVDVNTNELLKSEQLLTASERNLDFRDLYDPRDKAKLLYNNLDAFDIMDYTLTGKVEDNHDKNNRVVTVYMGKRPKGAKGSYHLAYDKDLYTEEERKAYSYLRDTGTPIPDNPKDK

[18] = Vero E6 cell cytotoxicity, dose response, cytotoxicity control for non-replicating M. tuberculosis project, secondary assay (AID 492998); assay type: functional, VeroE6; settings: Vero C1008
[19] = inhibitors of SNCA 5'UTR-driven reporter translation, confirmation, H4 neuroglioma cells, luminescence (AID 1988); assay type: functional, cell-based
[20] = microbe, parasite or virus in culture; assay type: functional; settings: Mycobacterium tuberculosis
[21] = NIH:OVCAR-3 ovarian cancer cell cytotoxicity, dose response, PAX8 inhibitor project, plate reader, dry powder samples (AID 743044); assay type: functional, cell-based
[22] = cytotoxicity in OVCAR8 ovarian cancer cells, dose response, PAX8 project, cell-based, plate reader, dry powder samples (AID 743197); assay type: functional; settings: OVCAR-8
[23] = molecular target: Paired box protein Pax-8 (Homo sapiens, UniProt Q06710); test: inhibitors of PAX8-driven TPO luciferase reporter, dose response, RMG-I cells, cherry-pick (AID 687027); assay type: functional, cell-based;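 note: luciferase reporter driven by Pax8 target thyroperoxidase promoter measured by SteadyGlo luminescence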
[24] = P. falciparum Dd2 growth inhibitors, dose response, SYBR Green, dry powder samples (AID 1159566); assay type: functional, cell-based;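 note: potency for growth inhibition with lower SYBR green DNA signal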
[25] = P. falciparum 3D7-ScDHODH growth inhibitors, dose response, SYBR Green, dry powder samples (AID 1159570); assay type: functional, cell-based;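 note: parasite growth measured after 72 hours of compound exposure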
[26] = P. falciparum Dd2 growth inhibitors, dose response, SYBR Green, cherry-picked samples (AID 1159567); assay type: functional, cell-based
[27] = P. falciparum ATP4 D1247Y mutant growth inhibitors, dose response, NITD609-resistant line, SYBR Green, dry powder (AID 1159571); assay type: functional, cell-based;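 note: parasites synchronized at ring stage by sorbitol before testing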

Paired box protein Pax-8, sequence (Q06710 whole entry): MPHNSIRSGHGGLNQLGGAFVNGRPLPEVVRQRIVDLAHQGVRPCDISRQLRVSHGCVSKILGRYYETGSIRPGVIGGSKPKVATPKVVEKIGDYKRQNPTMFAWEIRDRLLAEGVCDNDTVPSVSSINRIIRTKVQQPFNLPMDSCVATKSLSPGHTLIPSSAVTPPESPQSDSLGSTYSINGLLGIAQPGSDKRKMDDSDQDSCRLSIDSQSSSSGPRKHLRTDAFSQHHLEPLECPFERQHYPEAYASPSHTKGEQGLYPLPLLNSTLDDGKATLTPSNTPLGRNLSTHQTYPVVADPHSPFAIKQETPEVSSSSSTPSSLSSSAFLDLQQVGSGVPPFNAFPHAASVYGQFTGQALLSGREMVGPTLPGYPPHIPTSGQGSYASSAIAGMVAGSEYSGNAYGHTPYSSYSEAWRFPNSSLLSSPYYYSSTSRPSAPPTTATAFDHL

COc1ccc(C(=O)NC(C)c2nccs2)cc1OC1CCN(C(C)C)CC1 (stereo unspecified)
IC50 [1]: 12.9 µM (active)

Cn1c(SCC(=O)N/N=C/c2ccc([N+](=O)[O-])s2)nnc1-c1ccccc1
EC50 [2]: 0.634 µM (active)
EC50 [3]: 19.8 µM (active)
EC50 [4]: 4.9 µM (active)
AC50 [5]: 4.28 µM (active)
AC50 [6]: 3.5 µM (active)
EC50 [7]: 4.99 µM (active)

Cc1nnc(-c2ccccc2)c(=O)n1/N=C/c1c(O)ccc2ccccc12
IC50 [8]: 35.3 µM (active)
EC50 [2]: 1.16 µM (active)
EC50 [3]: 1.97 µM (active)
EC50 [9]: 25.7 µM (active)
EC50 [10]: 9.49 µM (active)
EC50 [11]: > 350 µM (not active)
EC50 [12]: > 120 µM (not active)
EC50 [13]: 2.7 µM (active)
EC50 [14]: 36.2 µM (active)
CC50 [15]: 3.63 µM (active)
CC50 [16]: > 20 µM (active)
EC50 [17]: > 150 µM (not active)
CC50 [18]: 8.43 µM (active)
EC50 [19]: > 120 µM (not active)
CC50 [20]: 18.9 µM (active)

Cc1nnsc1C(=O)N/N=C/c1ccc2ccccc2c1O
IC50 [8]: > 50 µM (active)
EC50 [9]: 6.43 µM (active)
EC50 [11]: 35.8 µM (active)
CC50 [15]: < 0.078 µM (active)
CC50 [16]: 1.51 µM (active)
CC50 [18]: 0.09 µM (active)
AC50 [6]: 0.321 µM (active)

CC(C)NC(=O)N(C)C[C@H]1OCCCC[C@@H](C)Oc2ccc(NC(=O)Nc3ccc(C(F)(F)F)cc3)cc2C(=O)N([C@@H](C)CO)C[C@H]1C
AC50 [21]: 32.7 µM (active)
AC50 [22]: 48.9 µM (active)
AC50 [23]: 8.11 µM (active)

C[C@H]1CCCCO[C@H](CN(C)S(=O)(=O)c2ccc(F)cc2)[C@@H](C)CN([C@@H](C)CO)C(=O)c2cc(NS(=O)(=O)c3ccc(Cl)cc3)ccc2O1
AC50 [21]: 49.2 µM (active)
AC50 [22]: 60.6 µM (active)
AC50 [23]: 5.92 µM (active)

COc1ccc(/C(C)=N/Nc2ncc(Cl)cc2Cl)c(O)c1
IC50 [8]: 2.19 µM (active)
CC50 [15]: 24.9 µM (active)
CC50 [16]: 19.3 µM (active)
CC50 [18]: > 20 µM (active)

CCc1cc(CC)c(/C=N/NC(N)=O)c(CC)c1/C=N/NC(N)=O
IC50 [1]: 11.1 µM (active)

Cc1ccc(S(=O)(=O)N(C)C[C@H]2OCc3ccccc3-c3c(n(C)c4ccccc34)C(=O)N([C@@H](C)CO)C[C@@H]2C)cc1
AC50 [24]: 0.818 µM (active)
AC50 [25]: 1.21 µM (active)
AC50 [26]: 1.53 µM (active)
AC50 [27]: 0.807 µM (active)

CCCc1cn(CC[C@@H]2CC[C@H](NS(=O)(=O)c3ccc(-c4ccccc4)cc3)[C@H](CO)O2)nn1
AC50 [24]: 0.332 µM (active)
AC50 [25]: 0.916 µM (active)
AC50 [26]: 1.39 µM (active)
AC50 [27]: 0.883 µM (active)

C[C@H]1CN([C@@H](C)CO)C(=O)c2c(c3ccccc3n2C)-c2ccccc2CO[C@@H]1CN(C)S(=O)(=O)c1ccc(F)cc1
AC50 [24]: 0.755 µM (active)
AC50 [25]: 1.4 µM (active)
AC50 [26]: 1.89 µM (active)
AC50 [27]: 1.15 µM (active)

O=C(C1CCCCC1)N1[C@H](CO)[C@@H](c2ccccc2)C12CN(Cc1cccc(Cl)c1)C2
AC50 [24]: 0.353 µM (active)
AC50 [25]: 0.651 µM (active)
AC50 [26]: 1.43 µM (active)
AC50 [27]: 0.606 µM (active)
